From PMC10040441 (Nature biomedical engineering, 2023)

Tests used:
[1] = target: amyloid-β (Aβ42) aggregates (Homo sapiens, UniProt P05067); experiment: fluorescence intensity binding assay with synthetic Aβ[…] aggregates
[2] = target: amyloid-β (Aβ40) aggregates (Homo sapiens, UniProt P05067); experiment: as above
amyloid-β (Aβ40) aggregates, sequence (P05067 672-711): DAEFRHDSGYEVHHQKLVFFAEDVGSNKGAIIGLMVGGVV

amyloid-β (Aβ42) aggregates, sequence (P05067 672-713): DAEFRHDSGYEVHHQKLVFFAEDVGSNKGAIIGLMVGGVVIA

Kd [1]: 78.9 ± 12.3 nM
Kd [2]: 43.7 ± 5.8 nM
SMILES: CC1(C)C(/C=C/C2=C(c3ccc(CCC(=O)O)cc3)C(=C/C=C3/N(CCC[N+](C)(C)C)c4ccc(S(=O)(=O)O)cc4C3(C)C)/CCC2)=[N+](CCC[N+](C)(C)C)c2ccc(S(=O)(=O)O)cc21 [ZW800–1C]
